The values below come from patent US6288111A (Research Development Foundation, priority 1995, dated 2001).

Data set [1] concerns melanoma. Description: Clinical trial: response of melanoma patients to DDP alone, then TAM/DDP. Format: in vivo, human. The source says:
A complete response was defined as the complete disappearance of all evidence of disease for at least 4 weeks. A partial response was a decrease in the mean diameter of the target lesion by 50% or more lasting at least 4 weeks. A mixed response was a decrease in the diameter of some target lesions of 50% or more while others remained stable or increased in size.
Patients were retreated every 3 weeks. […] Subsequent patients received an ondansetron-based regimen.

The test system of data set [2] is T-289 human melanoma cells. Description: Development of DDP resistance in T-289 cells (selection with DDP ± TAM, colony formation assay). Format: cell-based.
The subject of data set [3] is melanoma. Conditions: 203 treated melanoma patients; cited from earlier work.
For data set [4] the following is noted: read-out: Steady-state plasma concentration; chronic administration, 10 mg p.o. twice a day; cited from earlier work.
A short description of data set [5]: Plasma concentrations of TAM in patients. Conditions: predicted from in vitro data.
A short description of data set [6]: Clinical trial: toxicities with DDP or DDP/TAM treatment. Conditions: in words.
Source text: (§1) Entry requirements included histologically documented melanoma, measurable disease, signed informed consent, and no anti-tumor therapy during the previous 4 weeks. Patients were required to have normal hematologic and renal function, an Eastern Cooperative Oncology Group (ECOG) performance status of 0-2 and an estimated survival of at least 3 months. Patients with a previous history of deep venous thrombosis or pulmonary embolism were excluded.
(§2) Pre-treatment hydration consisted of 1 liter of 5% dextrose/0.45%saline containing 20 mEq of potassium chloride and 2 g magnesium sulfate administered over 4 hours. […] Patients were retreated every 3 weeks. On cycles where TAM was administered, 40 mg p.o. four doses per day were given on day 1 followed by 20 mg p.o. daily thereafter.
For data set [7] the following is noted: human, in vivo.
Source text: as §1, §2
Where [8] appears, read: DDP alone: 24 patients, TAM/DDP: 20 patients (19 evaluated), after DDP alone.
The mark [9] stands for this setting: DDP alone: 24 patients, TAM/DDP: 20 patients, after DDP alone.
[10] abbreviates: of the 19 patients evaluated for TAM/DDP.

Molecules are shown by their SMILES. Like-named read-outs stand apart in the source and are kept apart here.

Take `CC/C(=C(\c1ccccc1)c1ccc(OCCN(C)C)cc1)c1ccccc1` [TAM, tamoxifen]: the “Outcome of treatment in words” value in data set [1] (TAM and DDP in patients resistant to single agent DDP) is listed as “can overcome established resistance to DDP in a significant fraction of patients with malignant melanoma”. Further, the “Effect on development of DDP resistance” value in data set [2] (T-289, concurrent DDP and TAM, in words) is on record as “can delay the development of DDP resistance”. The “Response rate, single agent TAM” value in data set [3] is 6%. For the same compound, the concentration in data set [4] was roughly 290 nM. Moreover, the “Plasma concentration predicted to be necessary in DDP resistant patients” value in data set [5] is reported as “more than 1.0 μM”. In addition, in data set [6], the Nephrotoxicity result is “nephrotoxicity was uncommon and unaffected by the administration of TAM”; the “Overall toxicity / tolerability” value was “No increased toxicity was noted with the addition of TAM to single agent DDP”. Also, in data set [6] (during hospitalization for ondonsetron), the Nausea or vomiting result was “did not increase nausea or vomiting”.
As for `Cc1nccn1CC1CCc2c(c3ccccc3n2C)C1=O` (stereo not drawn) [ondonsetron], the Nausea or vomiting entry in data set [7] is “markedly reduced nausea and vomiting during hospitalization”.
Regarding `N.N.[Cl][Pt][Cl]` [DDP, cis-diamminedichloroplatinum (II)], in data set [1] (DDP alone, one patient), the “Duration of complete response” value is on record as “more than 15 months”, the “Stable off treatment after partial response” value was no less than 6 months and the “Time to progression after partial response” value turned out to be 4 months. In addition, in data set [1] (DDP alone: 24 patients), the “Complete Response (%)” value worked out at 4%. For the same compound, the “Progressive Disease (number of patients)” value in data set [1] (DDP alone: 24 patients (two refused DDP/TAM), TAM/DDP: 20 patients) is given as 19 patients. Besides, in data set [1] (DDP alone: 24 patients, TAM/DDP: 20 patients), the “Stable Disease (number of patients)” value is given as 2 patients. For the same compound, in data set [1] (setting [8]), the “Mixed Response (number of patients)” value is given as 0 patients and the “Partial Response (number of patients)” value is 2 patients. Also, in data set [1] (setting [9]), the “Complete Response (number of patients)” value was “One” and the “Partial Response (%)” value worked out at 8%. Also, the “Complete Response (number of patients)” value in data set [1] (DDP alone: 24 patients, TAM/DDP: 20 patients, after DDP alone, listed as Cisplatin) amounted to 1 patients. Besides, in data set [1] (setting [10]), the “Progressive disease while receiving single agent DDP (number of patients)” value is reported as 17 patients and the “Stable disease while receiving single agent DDP (number of patients)” value worked out at 2 patients. The “Time at which DDP resistance became apparent” value in data set [2] (T-289, selection) turned out to be 200 days. Also, the “Rate of emergence of DDP resistance, DDP alone compared with DDP and TAM” value in data set [2] (T-289, p<0.01) was found to be 2.75 fold.
